Data reported in PubChem BioAssay (NCI).
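Five concentrations, 48 hours, 96-well plates. GI50 is the concentration that inhibits growth by half. The concentration for full growth arrest is given as TGI.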 Peptide text beside a SMILES is read from it. * marks the point of attachment. OSu = O=C1CCC(=O)N1O*; OBn = c1ccc(CO*)cc1; Bn = c1ccc(C*)cc1

Legend:
Assay in all cases: NCI anticancer screen, dose series, 48 h
[1] = system: HCT-116 colon
[2] = system: HOP-62 NSCLC
[3] = system: NCI-H460 lung
[4] = system: NCI/ADR-RES ovarian
[5] = system: SF-539 CNS
[6] = system: SK-MEL-2 melanoma
[7] = system: SR leukemia
[8] = system: SW-620 colon
[9] = system: T-47D breast

| SMILES | TGI [1] | TGI [2] | TGI [3] | TGI [4] | TGI [5] | TGI [6] | TGI [7] | TGI [8] | TGI [9] | GI50 [6] | GI50 [8] | GI50 [1] | GI50 [3] | GI50 [7] | GI50 [9] |
| --- | --- | --- | --- | --- | --- | --- | --- | --- | --- | --- | --- | --- | --- | --- | --- |
| OC1(c2ccc(Cl)cc2)c2ccccc2C2=NCc3ccccc3CN21 (configuration not stated) | 19.2 µM | 21.9 µM | 23.7 µM | 26.2 µM | 24.4 µM | 16.9 µM | > 56.3 µM | 15.8 µM | > 61.7 µM | – | – | – | – | – | – |
| Cc1nc2sccn2c1C(=O)OCCOCCOCCOCCOC(=O)c1c(C)nc2sccn12 | > 100 µM | > 100 µM | > 100 µM | > 100 µM | > 100 µM | > 100 µM | > 100 µM | > 100 µM | – | – | – | – | – | – | – |
| CC12CCC(C1)C(C)(C)C2OC(=O)c1ccccc1C(=O)O (configuration not stated) | > 100 µM | > 100 µM | > 100 µM | > 100 µM | – | > 100 µM | – | > 100 µM | > 100 µM | – | – | – | – | – | – |
| N#CI1OC(C(F)(F)F)(C(F)(F)F)c2ccccc21 | 30.4 µM | > 100 µM | 72.5 µM | 40.3 µM | 36.9 µM | 30.5 µM | – | – | 49.3 µM | – | – | – | – | – | – |
| C/C(NC(=O)c1ccccc1)=C(/C(=O)c1ccccc1)[C@@H]1OC(C)(C)O[C@@H]1[C@H]1COC(C)(C)O1 | 52.5 µM | > 100 µM | 65.5 µM | > 100 µM | > 100 µM | 54.9 µM | 38.5 µM | 55.1 µM | – | – | – | – | – | – | – |
| CC(C)=CCC/C(C)=C/CC/C(C)=C/CSc1ccc(Cl)cc1C(=O)O | 31.6 µM | 28.1 µM | 32.7 µM | – | 36.4 µM | 28.8 µM | – | 46.9 µM | – | – | – | – | – | – | – |
| Cc1ccc(NC(=O)CC(=O)N2N=C(c3ccccc3)C(N=Nc3ccc(S(=O)(=O)CCOS(=O)(=O)O)cc3)C2=O)cc1 (configuration not stated) | > 100 µM | > 100 µM | > 100 µM | > 100 µM | > 100 µM | > 100 µM | > 100 µM | > 100 µM | – | – | – | – | – | – | – |
| C=CCc1cccc2cc(C(=O)Nc3nc(C45CC6CC(CC(C6)C4)C5)cs3)c(=O)oc12 | – | 36.3 µM | > 100 µM | > 100 µM | > 100 µM | – | > 100 µM | > 100 µM | – | – | – | – | – | – | – |
| C/C(=N\n1c(Cc2ccccc2)n[nH]c1=O)c1ccc([N+](=O)[O-])cc1 | > 100 µM | > 100 µM | > 100 µM | > 100 µM | – | > 100 µM | – | > 100 µM | > 100 µM | – | – | – | – | – | – |
| O=C(CCC(=O)OCC1OC(O)(CC2OC(CO)C(O)C(O)C2O)C(O)C1O)OCc1ccccc1 (configuration not stated) | > 100 µM | > 100 µM | > 100 µM | > 100 µM | > 100 µM | > 100 µM | – | > 100 µM | > 100 µM | – | – | – | – | – | – |
| O=C(c1ccccc1)n1[nH]c(=O)n(-c2ccc(Cl)cc2)c1=O | > 100 µM | > 100 µM | > 100 µM | > 100 µM | – | > 100 µM | > 100 µM | > 100 µM | > 100 µM | – | – | – | – | – | – |
| CCCC1C(C#N)(C#N)C(C#N)=C(N)C1(C)C(C)=O (configuration not stated) | > 100 µM | – | – | > 100 µM | > 100 µM | > 100 µM | – | > 100 µM | > 100 µM | – | – | – | – | – | – |
| O=[N+]([O-])c1ccc(Cl)cc1N/N=C/c1cccs1 | > 100 µM | > 100 µM | > 100 µM | > 100 µM | > 100 µM | – | > 100 µM | > 100 µM | > 100 µM | – | – | – | – | – | – |
| Clc1cccc(N=C/C=C/Nc2cccc(Cl)c2)c1 | 28.2 µM | 30.7 µM | 35.2 µM | 31.4 µM | 34.2 µM | – | 62.3 µM | 43.9 µM | – | – | – | – | – | – | – |
| CCCCNCC(O)c1cc(-c2ccc(C(F)(F)F)cc2)nc(-c2ccc(C(F)(F)F)cc2)c1 (configuration not stated) | – | – | – | – | – | 4.33 µM | – | 2.96 µM | – | 2.46 µM | 1.26 µM | – | – | – | – |
| CCOC(=O)O/N=C1/C(c2c(O)[nH]c3ccccc23)=Nc2ccccc21 | 13.6 µM | 33.9 µM | 15.8 µM | 78.6 µM | – | 8.18 µM | > 100 µM | > 100 µM | 25.6 µM | – | – | – | – | – | – |
| Cc1[nH]c(=O)[nH]c(=O)c1C(=O)N(CCO)Cc1ccccc1 | > 100 µM | > 100 µM | > 100 µM | – | > 100 µM | > 100 µM | > 100 µM | > 100 µM | > 100 µM | – | – | – | – | – | – |
| O=C(NNCc1ccccc1O)c1ccccc1O | > 100 µM | > 100 µM | – | 40.4 µM | > 100 µM | 25.8 µM | – | > 100 µM | 35 µM | – | – | – | – | – | – |
| COc1cc(C2C3=C(N=C4SC(C(C)=O)=C(C)N42)c2ccccc2CC3)cc(OC)c1OC (configuration not stated) | > 100 µM | > 100 µM | – | > 100 µM | > 100 µM | > 100 µM | – | > 100 µM | 50.9 µM | – | – | – | – | – | – |

| SMILES | TGI [1] | TGI [2] | TGI [3] | TGI [4] | TGI [5] | TGI [6] | TGI [7] | TGI [8] | TGI [9] | GI50 [6] | GI50 [8] | GI50 [1] | GI50 [3] | GI50 [7] | GI50 [9] |
| --- | --- | --- | --- | --- | --- | --- | --- | --- | --- | --- | --- | --- | --- | --- | --- |
| c1ccc2nn(C3CCCCO3)nc2c1 (configuration not stated) | > 100 µM | > 100 µM | > 100 µM | > 100 µM | > 100 µM | > 100 µM | > 100 µM | – | > 100 µM | – | – | – | – | – | – |
| COC(=O)C(N)CCCC(N)C(=O)NC(C)C(=O)NC(CCC(=O)NCCCNc1ccc([N+](=O)[O-])c2[nH]c3ccccc3c(=O)c12)C(N)=O (configuration not stated) | 12.4 µM | 22.4 µM | 17.2 µM | 25 µM | – | 46.2 µM | – | 14.7 µM | 33.9 µM | – | – | – | – | – | – |
| O=[N+]([O-])c1ccc(-[n+]2ccc3ccccc3c2)c([N+](=O)[O-])c1 | 5.95 µM | 20 µM | 30.1 µM | 11.9 µM | 12 µM | 25.2 µM | > 100 µM | – | 4.35 µM | – | – | – | – | – | – |
| Cn1c(=O)c2[nH]c(-n3nc(-c4ccccc4)cc3N)nc2n(C)c1=O | > 100 µM | > 100 µM | > 100 µM | 14.2 µM | 27.1 µM | 47.2 µM | > 100 µM | – | 65.9 µM | – | – | – | – | – | – |
| CC(CN(C)C)C(=O)/C=C/c1ccc(Cl)c(Cl)c1 (configuration not stated) | 2.99 µM | 10.4 µM | 5.2 µM | 79.6 µM | – | 4.19 µM | 6.25 µM | 8.42 µM | > 100 µM | – | – | – | – | – | – |
| CC1=CC(=O)/C(=C/N2CCNC2=S)C(=O)O1 | > 100 µM | > 100 µM | > 100 µM | > 100 µM | > 100 µM | > 100 µM | – | > 100 µM | > 100 µM | – | – | – | – | – | – |
| CC(C)CC(NC(=O)C(N)CCC(=O)OCc1ccccc1)C(=O)NC(COCc1ccccc1)C(=O)NC(Cc1ccccc1)C(=O)ON1C(=O)CCC1=O (configuration not stated) (H-E(OBn)LS(Bn)F-OSu; configuration not given here) | 33.1 µM | – | 71.8 µM | 85.3 µM | – | 65.6 µM | 85.4 µM | > 100 µM | – | – | – | – | – | – | – |
| Cc1cnc2[nH]c(-c3cccc(Cl)c3)cc(=O)c2c1 | – | 3.45 µM | > 58.2 µM | > 100 µM | 0.0658 µM | 97.4 µM | > 100 µM | > 100 µM | – | – | – | – | – | – | – |
| CN1CCN(c2c(O)c3c(c(O)c2Cl)C(=O)C=CC3=O)CC1 | 0.51 µM | 3.36 µM | 3.77 µM | 2.65 µM | 2.32 µM | 2.64 µM | – | 0.369 µM | 4.25 µM | – | – | – | – | – | – |
| O=C1CC(Cl)c2c(Cl)sc(Cl)c21 (configuration not stated) | 3.12 µM | 18.6 µM | 40 µM | > 28.5 µM | 8.32 µM | > 25.5 µM | – | 3.61 µM | > 22 µM | – | – | – | – | – | – |
| COc1cnnc2c(C)c(-c3ccccc3)nn12 | > 100 µM | > 100 µM | > 100 µM | > 100 µM | > 100 µM | > 100 µM | – | > 100 µM | > 100 µM | – | – | – | – | – | – |
| O=Cc1cc(O)c(O)c(/C=N/n2c3ccccc3c3ccccc32)c1 | 31.2 µM | 28 µM | 36.7 µM | – | 24.7 µM | – | 21.4 µM | 44.7 µM | 40.4 µM | – | – | – | – | – | – |
| O=[N+]([O-])c1cc(Cl)ccc1S(=O)(=O)c1cc(Cl)cc2c1NCCC2 | > 100 µM | > 100 µM | > 100 µM | > 100 µM | > 100 µM | > 100 µM | > 100 µM | > 100 µM | – | – | – | – | – | – | – |
| Cc1ccsc1/C=N/Nc1ccccn1 | > 100 µM | > 100 µM | – | > 100 µM | – | > 100 µM | – | > 100 µM | > 100 µM | – | – | – | – | – | – |
| C1=C[C@]2(CCC13OCCO3)COc1ccccc12 | > 100 µM | > 100 µM | > 100 µM | 96.4 µM | – | > 100 µM | > 100 µM | > 100 µM | > 100 µM | – | – | – | – | – | – |
| CCc1cc2c(oc3c4ccccc4ccc23)c(=O)[nH]1 | > 10 µM | – | > 10 µM | – | > 10 µM | – | > 10 µM | > 10 µM | – | – | – | – | – | – | – |
| COc1cc(C)cc(OC)c1/C=C/C(=O)O | > 100 µM | > 100 µM | > 100 µM | > 100 µM | – | > 100 µM | > 100 µM | > 100 µM | > 100 µM | – | – | – | – | – | – |
| CC(CC(C)(C)[N+](C)(C)C)[N+](C)(C)C (configuration not stated) | > 100 µM | > 100 µM | > 100 µM | > 100 µM | > 100 µM | – | > 100 µM | > 100 µM | – | – | – | – | – | – | – |
| COc1ccc(/C=C/C(c2cc(OC)c(OC)c(OC)c2)n2cncn2)cc1O (configuration not stated) | > 100 µM | – | 51.9 µM | – | – | > 100 µM | > 100 µM | > 100 µM | > 100 µM | 0.0438 µM | 0.0394 µM | 0.041 µM | 0.0423 µM | 0.0248 µM | > 100 µM |
